pEC50: −log10 of the molar value.
Key:
[1] = In vivo plasma levels in mice after oral gavage, with unbound exposure from plasma protein binding; conditions: male C57BL/6J mice, 30 mg/kg oral gavage; for Exposure (nM) (unbound), unbound exposure in plasma: total exposure x free fraction; for concentration at 2 h / concentration at 5 h: mouse, plasma, read-out: Exposure (nM), total exposure in plasma
Protocol: Male C57BL/6J mice 10-12 weeks old were dosed with test article (30 mg/kg) or vehicle by oral gavage. Animals were euthanized with carbon dioxide at 2 h or 5 h post dose. Blood was collected for measurement of plasma concentrations of test article. Unbound exposure was calculated by multiplying the measured total exposure by the free fraction as assessed from plasma protein binding.
Plasma protein binding to isotonic phosphate buffer (PBS) containing 10% C57 BL/6 mouse plasma was determined using equilibrium dialysis of plasma spiked with test article (2 μM) against a dialysis buffer (100 mM sodium phosphate and 150 mM NaCl). At the end of the dialysis (4 hr), aliquots of the plasma and buffer were processed by protein precipitation for LC-MS/MS analysis to quantitate the test article.
Results for exemplary compounds (total exposure in plasma and unbound exposure in plasma; ratio of EC50 to unbound exposure in plasma) are shown in Table 2.

[2] = target: T1, human GPR40 (Homo sapiens, UniProt O14842); assay: Inositol phosphate accumulation assay (IP1 HTRF) in CHO-K1 cells expressing human GPR40; type: cell-based; conditions: 90 min
T1 construct: host or cells: CHO-K1
T1 sequence (O14842 whole entry): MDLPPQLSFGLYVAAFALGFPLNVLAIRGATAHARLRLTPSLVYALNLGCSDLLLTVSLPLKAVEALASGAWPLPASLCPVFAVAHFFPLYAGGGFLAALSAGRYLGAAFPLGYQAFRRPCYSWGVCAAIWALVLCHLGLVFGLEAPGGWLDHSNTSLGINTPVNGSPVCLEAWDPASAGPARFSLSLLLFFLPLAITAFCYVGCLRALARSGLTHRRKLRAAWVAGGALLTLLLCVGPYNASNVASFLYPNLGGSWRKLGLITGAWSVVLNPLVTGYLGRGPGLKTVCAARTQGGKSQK
Protocol: CHO-K1 cells expressing human GPR40 were purchased from DiscoverX (95-1005C2). HEK293 cells expressing mouse FFAR1 were prepared using a mouse FFAR1 carrying plasmid purchased from OriGene Technologies (MR222997). The cells were transfected using Lipofectamine 2000 using manufacturer instructions and stable cell line was established from a single cell using geneticine selection. Assay ready frozen (ARF) cells were prepared and used throughout the study.
The assay was performed in a 384-well plate format using IP1 assay kit from Cis-Bio. ARF cells expressing FFAR1 (mouse and human) were thawed, washed and then plated in the appropriate medium (F12 based medium for CHO hFFAR1 and DMEM based medium for HEK293 mFFAR1-both were supplemented with 10% FBS and penicillin/streptomycin). 20 μL of 3.5×10^5 cells/mL were plated on a Poly D-Lysine coated 384-well white plate. The cells were then incubated for 16 hr at 37° C./5% CO2. After 16 hr the medium was removed and 15 μL of stimulation buffer containing the test compounds was added to the cells. The plates were then incubated for 90 min at 37° C./5% CO2. 5 μL of detection buffer (prepared as described in the IP-one kit) was added to each well and the plates were incubated at RT for 1 hr.
[…] was measured using ClarioSTAR plate reader, calculating the ratio between emissions at 665 nm and 620 nm (HTRF ratio). HTRF ratio for positive (Max) and negative (Min) controls were used to normalize HTRF data and generate values for % activity. EC50 and Max activity values were determined using a standard 4-parameter fit.

pEC50 [2]	SMILES	further results
≥ 7.30	COc1cc(-c2ccc(COc3cccc([C@@H](CP(C)(=O)O)C4CC4)c3)cc2[C@@H](OC)C(C)(C)C)c(F)cn1 [Compound 25, ((S)-2-cyclopropyl-2-(3-((4-(5-fluoro-2-methoxypyridin-4-yl)-3-((S)-1-methoxy-2,2-dimethylpropyl)benzyl)oxy)phenyl)ethyl)(methyl)phosphinic acid]	Exposure (nM) (unbound), unbound exposure in plasma ([1]; 2 h post-dose): 1.1 nM; concentration at 2 h ([1]; 2 h post-dose): 1840 nM
6.60 to 7.30	COc1cc(-c2ccc(COc3cccc(C(CP(C)(=O)O)C4CC4)c3)cc2CN(C(C)C)C(C)C)c(F)cn1 (single isomer, unassigned) [Compound 13, (2-cyclopropyl-2-(3-((3-((diisopropylamino)methyl)-4-(5-fluoro-2-methoxypyridin-4-yl)benzyl)oxy)phenyl)ethyl)(methyl)phosphinic acid]	Exposure (nM) (unbound), unbound exposure in plasma ([1]; 2 h post-dose): 1.2 nM; concentration at 2 h ([1]; 2 h post-dose): 294 nM
≥ 7.30	COc1cccc(-c2ccc(COc3cccc([C@@H](CP(C)(=O)O)C4CC4)c3)cc2[C@@H](OC)C(C)(C)C)c1 [Compound 29, ((S)-2-cyclopropyl-2-(3-((3′-methoxy-2-((S)-1-methoxy-2,2-dimethylpropyl)-[1,1′-biphenyl]-4-yl)methoxy)phenyl)ethyl)(methyl)phosphinic acid]	Exposure (nM) (unbound), unbound exposure in plasma ([1]; 5 h post-dose): 0.06 nM; concentration at 5 h ([1]; 5 h post-dose): 140 nM
≥ 7.30	COc1ccc(F)c(-c2ccc(COc3cccc([C@@H](CP(C)(=O)O)C4CC4)c3)cc2[C@@H](OC)C(C)(C)C)c1 [Compound 24, ((S)-2-cyclopropyl-2-(3-((2′-fluoro-5′-methoxy-2-((S)-1-methoxy-2,2-dimethylpropyl)-[1,1′-biphenyl]-4-yl)methoxy)phenyl)ethyl)(methyl)phosphinic acid]	Exposure (nM) (unbound), unbound exposure in plasma ([1]; 5 h post-dose): 0.03 nM; concentration at 5 h ([1]; 5 h post-dose): 145 nM
< 6.00	COc1cc(-c2ccc(COc3cccc(C(CP(C)(=O)O)C4CC4)c3)cc2CN(C(C)C)C(C)C)c(F)cn1 (single isomer, unassigned) [Compound 12, (2-cyclopropyl-2-(3-((3-((diisopropylamino)methyl)-4-(5-fluoro-2-methoxypyridin-4-yl)benzyl)oxy)phenyl)ethyl)(methyl)phosphinic acid]	–
< 6.00	COc1cc(-c2ccc(COc3cccc(C(CS(=O)(=O)O)C4CC4)c3)cc2CN(C(C)C)C(C)C)c(F)cn1 (single isomer, unassigned) [Compound 15, 2-cyclopropyl-2-(3-((3-((diisopropylamino)methyl)-4-(5-fluoro-2-methoxypyridin-4-yl)benzyl)oxy)phenyl)ethanesulfonic acid]	–
≥ 7.30	COc1ccc(F)c(-c2ccc(COc3cc([C@@H](CP(C)(=O)O)C4CC4)ccn3)cc2[C@@H](OC)C(C)(C)C)c1 [Compound 27, ((S)-2-cyclopropyl-2-(2-((2′-fluoro-5′-methoxy-2-((S)-1-methoxy-2,2-dimethylpropyl)-[1,1′-biphenyl]-4-yl)methoxy)pyridin-4-yl)ethyl)(methyl)phosphinic acid]	–
< 6.00	COc1cc(-c2ccc(COc3cccc(C(C4CC4)C(C)P(=O)(O)O)c3)cc2CN(C(C)C)C(C)C)c(F)cn1 (stereo not drawn) [Compound 6, (1-cyclopropyl-1-(3-((3-((diisopropylamino)methyl)-4-(5-fluoro-2-methoxypyridin-4-yl)benzyl)oxy)phenyl)propan-2-yl)phosphonic acid]	–
≥ 7.30	CO[C@H](c1cc(COc2cccc([C@@H](CP(C)(=O)O)C3CC3)c2)ccc1-c1cc(O)ccc1F)C(C)(C)C [Compound 26, ((S)-2-cyclopropyl-2-(3-((2′-fluoro-5′-hydroxy-2-((S)-1-methoxy-2,2-dimethylpropyl)-[1,1′-biphenyl]-4-yl)methoxy)phenyl)ethyl)(methyl)phosphinic acid]	–
≥ 7.30	COc1cc(-c2ccc(COc3cccc(C[C@@H](C)P(C)(=O)O)c3)cc2[C@@H](OC)C(C)(C)C)c(F)cn1 [Compound 41, ((R)-1-(3-((4-(5-fluoro-2-methoxypyridin-4-yl)-3-((S)-1-methoxy-2,2-dimethylpropyl)benzyl)oxy)phenyl)propan-2-yl)(methyl)phosphinic acid]	–
< 6.00	CCP(=O)(O)CC(c1cccc(OCc2ccc(-c3cc(OC)ncc3F)c(CN(C(C)C)C(C)C)c2)c1)C1CC1 (single isomer, unassigned) [Compound 17, (2-cyclopropyl-2-(3-((3-((diisopropylamino)methyl)-4-(5-fluoro-2-methoxypyridin-4-yl)benzyl)oxy)phenyl)ethyl)(ethyl)phosphinic acid]	–

SMILES	pEC50 [2]	further results
COc1cc(-c2ccc(COc3cccc(C(CP(=O)(O)OC)C4CC4)c3)cc2CN(C(C)C)C(C)C)c(F)cn1 (stereo not drawn) [Compound 5, methyl hydrogen (2-cyclopropyl-2-(3-((3-((diisopropylamino)methyl)-4-(5-fluoro-2-methoxypyridin-4-yl)benzyl)oxy)phenyl)ethyl)phosphonate]	< 6.00	–
COc1cc(-c2ccc(COc3cccc(C(C4CC4)C(C)P(=O)(O)OC)c3)cc2CN(C(C)C)C(C)C)c(F)cn1 (stereo not drawn) [Compound 7, methyl hydrogen (1-cyclopropyl-1-(3-((3-((diisopropylamino)methyl)-4-(5-fluoro-2-methoxypyridin-4-yl)benzyl)oxy)phenyl)propan-2-yl)phosphonate]	< 6.00	–
